Results taken from ChEMBL document CHEMBL1201862, “PubChem BioAssay data set” (2004).
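Compound exposure: 48 hours, 5 concentrations, 96-well plates. Abbreviation: GI50, concentration required for 50% inhibition of growth.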 Activity calls are given as the source filed them. No stated cut-off is given here; in the data, active = GI50 up to about 1.1 µM and inactive = higher.

Tests used:
Assay in all cases: NCI tumour cell line growth inhibition, 48 h
SK-MEL-28 = test system: SK-MEL-28
HOP-62 = test system: HOP-62
SK-OV-3 = test system: SK-OV-3
OVCAR-8 = test system: OVCAR-8
TK-10 = test system: TK-10
UACC-62 = test system: UACC-62
SR = test system: SR
SF-539 = test system: SF-539
IGROV-1 = test system: IGROV-1
HCT-116 = test system: HCT-116
HOP-92 = test system: HOP-92
SNB-19 = test system: SNB-19
COLO 205 = test system: COLO 205
OVCAR-3 = test system: OVCAR-3
SF-295 = test system: SF-295
UACC-257 = test system: UACC-257

Measured: GI50

COc1ccc(C[C@H](N)C(=O)N2C[C@@H](CO)C[C@@H](n3ccc(=O)[nH]c3=O)C2)cc1
inactive: SK-MEL-28 > 100 µM | HOP-62 > 100 µM | SK-OV-3 > 100 µM | OVCAR-8 > 100 µM | TK-10 > 100 µM | UACC-62 > 100 µM | SR > 100 µM | SF-539 > 100 µM | IGROV-1 > 100 µM | HCT-116 > 100 µM | HOP-92 > 100 µM | SNB-19 > 100 µM | COLO 205 > 100 µM | OVCAR-3 > 100 µM

O=C(NCCc1ccccc1)C1C(=O)C(=O)N(CCc2ccccc2)C1=O (stereo not given)
inactive: SK-MEL-28 > 100 µM | SK-OV-3 48.4 µM | TK-10 > 100 µM | UACC-62 > 100 µM | SR > 100 µM | SF-295 > 100 µM | SF-539 > 100 µM | IGROV-1 > 100 µM | HCT-116 > 100 µM | HOP-92 > 100 µM | UACC-257 > 100 µM | SNB-19 > 100 µM | OVCAR-3 > 100 µM

NNC(=S)N/N=C(\CCCC(=O)NCCc1ccccc1)CC(=O)c1ccccc1
inactive: SK-MEL-28 > 100 µM | HOP-62 > 100 µM | OVCAR-8 > 100 µM | TK-10 > 100 µM | UACC-62 > 100 µM | SR > 100 µM | SF-295 > 100 µM | SF-539 > 100 µM | IGROV-1 > 100 µM | HCT-116 > 100 µM | HOP-92 > 100 µM | UACC-257 > 100 µM | SNB-19 > 100 µM | COLO 205 > 100 µM | OVCAR-3 > 100 µM

C/C=C/C(=O)Oc1cccc2cccnc12
inactive: SK-MEL-28 14.5 µM | HOP-62 26.7 µM | SK-OV-3 32.9 µM | OVCAR-8 4.61 µM | TK-10 44.2 µM | UACC-62 6.98 µM | SF-295 12.1 µM | SF-539 7.83 µM | IGROV-1 24.6 µM | HCT-116 3.76 µM | HOP-92 8.32 µM | UACC-257 4.62 µM | SNB-19 48.8 µM | COLO 205 18.6 µM | OVCAR-3 3.24 µM

COc1cccc(NC(=O)CC(=O)N2N=C(N(CCC#N)c3ccccc3C)CC2c2ccccc2)c1 (stereo not given)
inactive: SK-MEL-28 > 100 µM | HOP-62 > 100 µM | SK-OV-3 > 100 µM | OVCAR-8 > 100 µM | UACC-62 > 100 µM | SR > 100 µM | SF-295 > 100 µM | SF-539 > 100 µM | IGROV-1 > 100 µM | HCT-116 > 100 µM | HOP-92 > 100 µM | UACC-257 > 100 µM | SNB-19 > 100 µM | COLO 205 > 100 µM | OVCAR-3 > 100 µM

COc1ccc(OC(C)C(=O)O)c2c(=O)ccccc12 (stereo not given)
inactive: SK-MEL-28 > 100 µM | HOP-62 > 100 µM | SK-OV-3 > 100 µM | OVCAR-8 > 100 µM | TK-10 > 100 µM | UACC-62 > 100 µM | SR > 100 µM | SF-295 > 100 µM | SF-539 > 100 µM | IGROV-1 > 100 µM | UACC-257 > 100 µM | SNB-19 > 100 µM | COLO 205 > 100 µM | OVCAR-3 > 100 µM

CC(=O)N(C)C=C1C(=O)N(C)C(=O)N(C)C1=O
inactive: SK-MEL-28 > 100 µM | OVCAR-8 > 100 µM | TK-10 > 100 µM | UACC-62 > 100 µM | SR > 100 µM | SF-295 > 100 µM | SF-539 > 100 µM | HCT-116 > 100 µM | HOP-92 > 100 µM | UACC-257 > 100 µM | SNB-19 > 100 µM | OVCAR-3 > 100 µM

COc1ccc2c(c1O)C(=O)C(CCC(=O)O)CC2 (stereo not given)
inactive: SK-MEL-28 > 100 µM | HOP-62 > 100 µM | SK-OV-3 > 100 µM | OVCAR-8 > 100 µM | TK-10 > 100 µM | UACC-62 > 100 µM | SF-295 30.9 µM | SF-539 > 100 µM | IGROV-1 > 100 µM | HCT-116 > 100 µM | HOP-92 > 100 µM | UACC-257 > 100 µM | SNB-19 > 100 µM | COLO 205 > 100 µM | OVCAR-3 > 100 µM

C[C@]12C/C(=C/O)C(=O)C(O)=C1CC[C@@H]1C2CC[C@@]2(C)C1CC[C@@H]2O (stereo not given in full)
inactive: SK-MEL-28 21.5 µM | HOP-62 46.7 µM | SK-OV-3 27.5 µM | OVCAR-8 27.1 µM | TK-10 42.1 µM | UACC-62 16.5 µM | SF-295 26.7 µM | SF-539 18.7 µM | IGROV-1 21.7 µM | HOP-92 23.1 µM | UACC-257 22.4 µM | SNB-19 18.3 µM | COLO 205 21.2 µM | OVCAR-3 17.9 µM

O=C1CC2(CCC3=C(O2)c2ccccc2NC(=O)C3)C(=O)c2ccccc2N1 (stereo not given)
inactive: SK-MEL-28 > 100 µM | HOP-62 > 100 µM | OVCAR-8 > 100 µM | TK-10 > 100 µM | UACC-62 > 100 µM | SR > 10 µM | SF-295 > 100 µM | SF-539 > 100 µM | IGROV-1 > 100 µM | HCT-116 > 100 µM | SNB-19 98.6 µM | COLO 205 > 100 µM | OVCAR-3 > 100 µM

Cc1cccc(=O)c([O-])c1.Cc1cccc(=O)c([O-])c1.[Bi+3].[Cl-]
inactive: SK-MEL-28 5.94 µM | HOP-62 14 µM | SK-OV-3 22.5 µM | OVCAR-8 3.72 µM | TK-10 17.5 µM | UACC-62 7.96 µM | SF-295 10.4 µM | SF-539 12 µM | IGROV-1 12.3 µM | HCT-116 3.33 µM | HOP-92 6.01 µM | UACC-257 8.32 µM | SNB-19 15.5 µM | OVCAR-3 2.74 µM

COC(=O)C1=C(O)c2cc(OC)c(OC)c(OC)c2[C@H](c2cc(OC)c(OC)c(OC)c2)C1C(=O)OC (stereo not given in full)
inactive: SK-MEL-28 21.8 µM | HOP-62 59.8 µM | SK-OV-3 35 µM | OVCAR-8 36.4 µM | TK-10 > 100 µM | UACC-62 14 µM | SF-295 13.6 µM | SF-539 14.2 µM | IGROV-1 36.2 µM | HCT-116 37.6 µM | HOP-92 9.89 µM | UACC-257 44.4 µM | SNB-19 38.3 µM | COLO 205 15.8 µM | OVCAR-3 22.9 µM

COc1ccc(OC)c(CC(C)N)c1 (stereo not given)
inactive: SK-MEL-28 > 100 µM | HOP-62 > 100 µM | SK-OV-3 > 100 µM | OVCAR-8 > 100 µM | TK-10 > 100 µM | UACC-62 > 100 µM | SF-295 > 100 µM | SF-539 > 100 µM | IGROV-1 > 100 µM | HCT-116 > 100 µM | UACC-257 > 100 µM | SNB-19 > 100 µM | COLO 205 > 100 µM | OVCAR-3 > 100 µM

CCCc1ccc(NCc2cc(OC)c(OC)c(OC)c2)cc1
inactive: SK-MEL-28 25.1 µM | HOP-62 34.1 µM | SK-OV-3 22.3 µM | OVCAR-8 35.3 µM | TK-10 59.8 µM | UACC-62 26.9 µM | SF-539 28.3 µM | IGROV-1 24.4 µM | HCT-116 24.7 µM | HOP-92 22.9 µM | UACC-257 22.4 µM | SNB-19 36.4 µM
